# Measurements as given in the kinase profiling compilation of Christmann-Franck et al. (2016).
# Tests used:
# Assay in all cases: radiometric filter-binding kinase assay, Kinase HotSpot
# Settings in all cases: compound 0.5 µM; ATP 10 µM
# [1] = biological target: CAMK4 (human) (UniProt Q16566)
# [2] = biological target: CAMKK1 (human) (UniProt Q8N5S9)
# [3] = biological target: CDK1 CCNA2 (human) (UniProt P06493+P20248)
# [4] = biological target: CDK5 CDK5R1 p25 (human) (UniProt Q00535+Q15078)
# CDK5 CDK5R1 p25 (human), sequence (Q00535 whole entry, looked up): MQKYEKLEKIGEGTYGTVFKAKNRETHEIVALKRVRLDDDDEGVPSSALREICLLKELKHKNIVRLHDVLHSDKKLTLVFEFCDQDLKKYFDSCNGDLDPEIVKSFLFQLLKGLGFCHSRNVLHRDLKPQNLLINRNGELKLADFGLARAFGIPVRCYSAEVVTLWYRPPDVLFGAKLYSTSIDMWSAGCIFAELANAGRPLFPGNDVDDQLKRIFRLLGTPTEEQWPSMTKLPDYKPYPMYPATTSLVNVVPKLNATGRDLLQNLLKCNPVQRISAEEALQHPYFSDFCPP
# CDK5 CDK5R1 p25 (human), sequence (Q15078 whole entry, looked up): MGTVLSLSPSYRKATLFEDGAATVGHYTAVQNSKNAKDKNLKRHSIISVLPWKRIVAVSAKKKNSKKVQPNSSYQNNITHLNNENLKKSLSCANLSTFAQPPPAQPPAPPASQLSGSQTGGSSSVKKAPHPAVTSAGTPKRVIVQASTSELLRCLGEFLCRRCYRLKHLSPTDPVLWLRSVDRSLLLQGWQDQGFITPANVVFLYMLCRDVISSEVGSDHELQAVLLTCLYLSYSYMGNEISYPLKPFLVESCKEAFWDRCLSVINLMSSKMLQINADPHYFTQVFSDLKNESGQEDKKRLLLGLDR
# [5] = biological target: CHEK2 (human) (UniProt O96017)
# [6] = biological target: CLK4 (human) (UniProt Q9HAZ1)
# [7] = biological target: CSNK1G2 (human) (UniProt P78368)
# [8] = biological target: DAPK2 (human) (UniProt Q9UIK4)
# DAPK2 (human), sequence (Q9UIK4 whole entry, looked up): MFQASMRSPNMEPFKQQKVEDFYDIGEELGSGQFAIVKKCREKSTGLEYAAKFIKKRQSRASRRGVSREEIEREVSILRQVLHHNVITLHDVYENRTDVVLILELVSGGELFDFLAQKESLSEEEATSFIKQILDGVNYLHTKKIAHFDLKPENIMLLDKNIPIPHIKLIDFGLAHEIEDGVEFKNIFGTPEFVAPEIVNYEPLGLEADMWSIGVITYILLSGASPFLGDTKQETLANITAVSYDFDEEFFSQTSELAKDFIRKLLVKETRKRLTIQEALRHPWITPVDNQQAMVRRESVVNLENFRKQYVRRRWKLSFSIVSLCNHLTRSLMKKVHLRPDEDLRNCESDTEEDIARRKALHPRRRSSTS
# [9] = biological target: DSTYK (human) (UniProt Q6XUX3)
# [10] = biological target: DYRK4 (human) (UniProt Q9NR20)
# [11] = biological target: EPHA1 (human) (UniProt P21709)
# [12] = biological target: FGFR1 (human) (UniProt P11362)
# [13] = biological target: FGFR4 (human) (UniProt P22455)
# [14] = biological target: FRK (human) (UniProt P42685)
# [15] = biological target: GRK5 (human) (UniProt P34947)
# GRK5 (human), sequence (P34947 whole entry, looked up): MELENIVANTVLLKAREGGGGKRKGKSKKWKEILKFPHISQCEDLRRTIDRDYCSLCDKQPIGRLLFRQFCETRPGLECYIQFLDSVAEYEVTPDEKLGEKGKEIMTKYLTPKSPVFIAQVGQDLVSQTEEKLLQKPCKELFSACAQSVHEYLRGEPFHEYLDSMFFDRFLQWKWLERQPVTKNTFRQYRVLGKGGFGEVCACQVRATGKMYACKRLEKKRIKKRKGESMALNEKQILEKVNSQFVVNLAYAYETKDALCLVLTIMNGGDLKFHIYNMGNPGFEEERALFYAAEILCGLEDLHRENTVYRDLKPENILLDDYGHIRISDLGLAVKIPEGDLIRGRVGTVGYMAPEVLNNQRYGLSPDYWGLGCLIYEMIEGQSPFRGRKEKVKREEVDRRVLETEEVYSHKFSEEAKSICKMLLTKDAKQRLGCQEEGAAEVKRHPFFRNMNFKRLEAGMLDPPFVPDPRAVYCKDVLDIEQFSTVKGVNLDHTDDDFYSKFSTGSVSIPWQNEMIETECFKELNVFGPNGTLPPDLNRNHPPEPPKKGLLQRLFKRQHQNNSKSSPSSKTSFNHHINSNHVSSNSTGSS
# [16] = biological target: GSK3A (human) (UniProt P49840)
# [17] = biological target: HIPK3 (human) (UniProt Q9H422)
# [18] = biological target: MAPK14 (human) (UniProt Q16539)
# [19] = biological target: MAPK3 (human) (UniProt P27361)
# MAPK3 (human), sequence (P27361 whole entry, looked up): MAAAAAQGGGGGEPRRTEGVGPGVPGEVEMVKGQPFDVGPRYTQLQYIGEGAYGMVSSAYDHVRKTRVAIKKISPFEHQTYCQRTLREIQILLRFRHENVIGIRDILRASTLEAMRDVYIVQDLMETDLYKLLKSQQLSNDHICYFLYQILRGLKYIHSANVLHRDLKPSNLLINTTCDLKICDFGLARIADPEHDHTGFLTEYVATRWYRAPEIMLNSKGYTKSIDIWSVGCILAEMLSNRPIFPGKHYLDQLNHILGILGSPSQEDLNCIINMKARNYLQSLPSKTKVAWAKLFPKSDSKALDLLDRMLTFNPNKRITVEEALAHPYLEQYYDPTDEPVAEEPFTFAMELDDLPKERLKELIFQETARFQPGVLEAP
# [20] = biological target: MAPKAPK3 (human) (UniProt Q16644)
# [21] = biological target: MARK1 (human) (UniProt Q9P0L2)
# MARK1 (human), sequence (Q9P0L2 whole entry, looked up): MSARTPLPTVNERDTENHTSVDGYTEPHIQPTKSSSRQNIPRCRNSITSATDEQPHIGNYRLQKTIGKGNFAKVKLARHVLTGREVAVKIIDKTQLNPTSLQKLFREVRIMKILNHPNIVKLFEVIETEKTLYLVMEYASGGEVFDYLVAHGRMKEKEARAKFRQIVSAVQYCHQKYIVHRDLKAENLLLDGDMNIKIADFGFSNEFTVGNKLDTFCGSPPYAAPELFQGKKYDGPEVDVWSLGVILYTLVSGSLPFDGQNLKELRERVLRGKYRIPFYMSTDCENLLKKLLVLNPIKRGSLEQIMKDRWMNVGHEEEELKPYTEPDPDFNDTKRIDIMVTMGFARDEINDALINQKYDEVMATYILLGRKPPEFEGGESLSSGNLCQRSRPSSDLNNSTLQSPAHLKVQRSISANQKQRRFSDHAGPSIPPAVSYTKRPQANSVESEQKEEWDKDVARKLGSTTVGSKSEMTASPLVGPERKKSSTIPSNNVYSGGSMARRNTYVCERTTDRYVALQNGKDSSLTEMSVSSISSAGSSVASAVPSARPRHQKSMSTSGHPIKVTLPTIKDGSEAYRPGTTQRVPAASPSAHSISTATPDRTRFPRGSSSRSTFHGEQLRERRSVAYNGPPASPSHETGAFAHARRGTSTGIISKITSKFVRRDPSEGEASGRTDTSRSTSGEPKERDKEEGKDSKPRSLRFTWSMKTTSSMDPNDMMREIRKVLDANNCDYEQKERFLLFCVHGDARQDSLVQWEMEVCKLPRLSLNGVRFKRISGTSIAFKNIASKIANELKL
# [22] = biological target: MELK (human) (UniProt Q14680)
# [23] = biological target: NEK1 (human) (UniProt Q96PY6)
# NEK1 (human), sequence (Q96PY6 whole entry, looked up): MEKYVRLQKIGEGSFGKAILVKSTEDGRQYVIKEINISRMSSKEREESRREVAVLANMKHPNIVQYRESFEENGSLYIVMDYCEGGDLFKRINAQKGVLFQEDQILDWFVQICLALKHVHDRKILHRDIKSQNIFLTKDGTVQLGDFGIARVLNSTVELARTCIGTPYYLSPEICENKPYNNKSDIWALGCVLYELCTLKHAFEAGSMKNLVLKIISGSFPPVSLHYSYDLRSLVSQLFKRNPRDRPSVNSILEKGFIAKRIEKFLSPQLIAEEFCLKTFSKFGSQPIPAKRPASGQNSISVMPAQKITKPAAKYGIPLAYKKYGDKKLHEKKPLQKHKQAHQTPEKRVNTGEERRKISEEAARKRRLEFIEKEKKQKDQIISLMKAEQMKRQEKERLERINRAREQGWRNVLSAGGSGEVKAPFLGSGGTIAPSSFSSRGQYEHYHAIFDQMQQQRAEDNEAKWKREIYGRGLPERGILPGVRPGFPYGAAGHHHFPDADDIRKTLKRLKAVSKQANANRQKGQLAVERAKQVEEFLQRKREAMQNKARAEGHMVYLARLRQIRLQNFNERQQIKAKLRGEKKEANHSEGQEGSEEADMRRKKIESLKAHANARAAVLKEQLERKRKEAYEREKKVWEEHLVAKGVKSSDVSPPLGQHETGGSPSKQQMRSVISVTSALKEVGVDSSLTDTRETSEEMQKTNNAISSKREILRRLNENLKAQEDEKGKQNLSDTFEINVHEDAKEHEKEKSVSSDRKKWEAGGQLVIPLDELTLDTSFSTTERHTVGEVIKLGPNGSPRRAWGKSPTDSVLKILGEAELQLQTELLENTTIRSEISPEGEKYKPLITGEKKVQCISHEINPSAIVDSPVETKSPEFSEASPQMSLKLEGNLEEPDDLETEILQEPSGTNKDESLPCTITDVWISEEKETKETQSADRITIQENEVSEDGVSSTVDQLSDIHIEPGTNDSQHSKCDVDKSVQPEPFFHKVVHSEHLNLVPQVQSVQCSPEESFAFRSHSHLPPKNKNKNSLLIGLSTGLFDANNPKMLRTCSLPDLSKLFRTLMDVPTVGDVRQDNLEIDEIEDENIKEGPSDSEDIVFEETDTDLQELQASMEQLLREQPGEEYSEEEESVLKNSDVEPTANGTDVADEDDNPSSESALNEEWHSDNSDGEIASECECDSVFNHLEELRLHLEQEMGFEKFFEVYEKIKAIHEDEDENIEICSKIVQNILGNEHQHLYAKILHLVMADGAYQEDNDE
# [24] = biological target: NTRK2 (human) (UniProt Q16620)
# [25] = biological target: PAK2 (human) (UniProt Q13177)
# [26] = biological target: PASK (human) (UniProt Q96RG2)
# [27] = biological target: PNCK (human) (UniProt Q6P2M8)
# [28] = biological target: PRKACA (human) (UniProt P17612)
# [29] = biological target: PRKCH (human) (UniProt P24723)
# [30] = biological target: PRKCI (human) (UniProt P41743)
# [31] = biological target: PRKX (human) (UniProt P51817)
# [32] = biological target: RPS6KA2 KD1 KD2 (human) (UniProt Q15349)
# [33] = biological target: SGK2 (human) (UniProt Q9HBY8)
# SGK2 (human), sequence (Q9HBY8 whole entry, looked up): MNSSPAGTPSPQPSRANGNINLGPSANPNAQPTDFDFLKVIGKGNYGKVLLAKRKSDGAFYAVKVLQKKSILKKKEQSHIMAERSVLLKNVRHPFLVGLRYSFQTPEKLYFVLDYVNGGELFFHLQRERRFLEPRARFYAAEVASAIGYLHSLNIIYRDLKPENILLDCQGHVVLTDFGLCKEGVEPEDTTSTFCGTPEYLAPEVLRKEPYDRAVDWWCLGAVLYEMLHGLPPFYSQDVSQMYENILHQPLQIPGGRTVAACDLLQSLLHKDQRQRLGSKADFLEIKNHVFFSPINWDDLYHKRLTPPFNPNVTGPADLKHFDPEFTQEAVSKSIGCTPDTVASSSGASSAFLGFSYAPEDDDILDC
# [34] = biological target: TAOK3 (human) (UniProt Q9H2K8)
# [35] = biological target: WNK3 (human) (UniProt Q9BYP7)
# [36] = biological target: ALK (human) (UniProt Q9UM73)
# [37] = biological target: FGR (human) (UniProt P09769)
# [38] = biological target: FLT3 (human) (UniProt P36888)
# [39] = biological target: LRRK2 (human) (UniProt Q5S007)
# [40] = biological target: MYLK2 (human) (UniProt Q9H1R3)
# [41] = biological target: PRKCE (human) (UniProt Q02156)
# CAMK4 (human), sequence (Q16566 whole entry, looked up): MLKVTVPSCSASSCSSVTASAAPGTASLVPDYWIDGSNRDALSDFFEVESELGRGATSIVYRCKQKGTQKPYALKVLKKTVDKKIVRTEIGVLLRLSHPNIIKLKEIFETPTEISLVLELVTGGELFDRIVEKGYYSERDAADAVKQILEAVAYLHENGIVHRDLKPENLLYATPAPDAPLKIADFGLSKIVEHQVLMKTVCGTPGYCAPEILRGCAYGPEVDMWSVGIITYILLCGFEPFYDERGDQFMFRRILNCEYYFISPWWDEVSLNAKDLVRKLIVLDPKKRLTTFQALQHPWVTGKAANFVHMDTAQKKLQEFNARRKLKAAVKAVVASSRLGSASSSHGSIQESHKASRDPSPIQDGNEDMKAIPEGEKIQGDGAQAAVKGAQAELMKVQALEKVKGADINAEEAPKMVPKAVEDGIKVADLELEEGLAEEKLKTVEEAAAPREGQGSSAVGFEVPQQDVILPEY
smiles,measurement,setting,value
C#Cc1cccc(Nc2ncnc3cc(OCCOC)c(OCCOC)cc23)c1,residual activity,[1],94.8%
same,residual activity,[2],98.7%
same,residual activity,[3],99.6%
same,residual activity,[4],90.5%
same,residual activity,[5],100%
same,residual activity,[6],101%
same,residual activity,[7],98.3%
same,residual activity,[8],92.5%
same,residual activity,[9],107%
same,residual activity,[10],101%
same,residual activity,[11],94.5%
same,residual activity,[12],99.1%
same,residual activity,[13],93.3%
same,residual activity,[14],102%
same,residual activity,[15],100%
same,residual activity,[16],99.3%
same,residual activity,[17],102%
same,residual activity,[18],95.3%
same,residual activity,[19],101%
same,residual activity,[20],98.1%
same,residual activity,[21],130%
same,residual activity,[22],88.6%
same,residual activity,[23],73.8%
same,residual activity,[24],93.1%
same,residual activity,[25],99.1%
same,residual activity,[26],97.4%
same,residual activity,[27],103%
same,residual activity,[28],93.4%
same,residual activity,[29],116%
same,residual activity,[30],99%
same,residual activity,[31],111%
same,residual activity,[32],101%
same,residual activity,[33],107%
same,residual activity,[34],106%
same,residual activity,[35],101%
CS(=O)c1ccc(-c2nc(-c3ccc(F)cc3)c(-c3ccncc3)[nH]2)cc1 (centres undefined),residual activity,[36],105%
same,residual activity,[1],101%
same,residual activity,[2],125%
same,residual activity,[3],91.2%
same,residual activity,[4],90.6%
same,residual activity,[5],99.6%
same,residual activity,[6],98.7%
same,residual activity,[7],95.7%
same,residual activity,[8],102%
same,residual activity,[9],100%
same,residual activity,[10],99.2%
same,residual activity,[11],97%
same,residual activity,[12],90.7%
same,residual activity,[13],73.8%
same,residual activity,[37],92.7%
same,residual activity,[38],91.5%
same,residual activity,[14],87.2%
same,residual activity,[15],104%
same,residual activity,[16],94.1%
same,residual activity,[17],103%
same,residual activity,[39],100%
same,residual activity,[19],101%
same,residual activity,[21],105%
same,residual activity,[22],102%
same,residual activity,[40],99.9%
same,residual activity,[23],94.7%
same,residual activity,[24],104%
same,residual activity,[25],78%
same,residual activity,[26],99.1%
same,residual activity,[27],102%
same,residual activity,[28],98.9%
same,residual activity,[41],115%
same,residual activity,[30],95.2%
same,residual activity,[31],99.3%
same,residual activity,[32],102%
same,residual activity,[33],106%
same,residual activity,[34],103%
same,residual activity,[35],99%
CC(C)[C@H](CO)Nc1nc(Nc2cccc(Cl)c2)c2ncn(C(C)C)c2n1,residual activity,[36],100%
same,residual activity,[1],95.3%
same,residual activity,[2],101%
same,residual activity,[3],31.7%
same,residual activity,[4],3.87%
same,residual activity,[5],88.1%
same,residual activity,[6],50.9%
same,residual activity,[7],32.4%
same,residual activity,[8],111%
same,residual activity,[9],105%
same,residual activity,[10],91.2%
same,residual activity,[11],98.3%
same,residual activity,[12],80.6%
same,residual activity,[13],79%
same,residual activity,[37],44.3%
same,residual activity,[38],16.4%
same,residual activity,[14],90.2%
same,residual activity,[15],101%
same,residual activity,[16],108%
same,residual activity,[17],102%
same,residual activity,[39],77.7%
same,residual activity,[18],99.4%
same,residual activity,[19],104%
same,residual activity,[20],85.4%
same,residual activity,[21],94.5%
same,residual activity,[22],69.5%
same,residual activity,[40],97.1%
same,residual activity,[23],107%
same,residual activity,[24],33.4%
same,residual activity,[25],103%
same,residual activity,[26],93.1%
same,residual activity,[27],97.8%
same,residual activity,[28],102%
same,residual activity,[41],115%
same,residual activity,[29],92.7%
same,residual activity,[30],96.6%
same,residual activity,[31],97.4%
same,residual activity,[32],69.4%
same,residual activity,[33],103%
same,residual activity,[34],91.1%
same,residual activity,[35],89.1%
